Assay: Plasma lovastatin levels in rats after a single oral or dermal dose, by HMG-CoA reductase inhibition assay
Type: in vivo, rat
Settings: intact rats, single dose, 1, 3, 6 and 24 hours; dermal in 100% DMSO vs oral gavage in 0.5% methylcellulose
Method: For oral administration, a suspension of lovastatin was prepared in 0.5% methylcellulose and administered by gavage.

## CC[C@H](C)C(=O)O[C@H]1C[C@@H](C)C=C2C=C[C@H](C)[C@H](CC[C@@H]3C[C@@H](O)CC(=O)O3)[C@H]21 [lovastatin]
  plasma concentrations of lovastatin, dermal versus oral: greater, less variable and more prolonged than when the drug was given orally

Reference: patent publication US20110184057A1, “PARENTERAL TREATMENT WITH STATINS” (priority 2008, published 2011)
